Measurements: patent US7396839B2, “Crystalline forms of gatifloxacin” (Teva Pharmaceuticals USA, Inc., priority 2002, dated 2008)

Key:
[1] = storage at ambient temperature and pressure (crystalline form conversion); format: physicochemical
[2] = heating of the crystalline form at about 50° C.; format: physicochemical; conditions: heating at about 50° C.
[3] = among the forms of U.S. Pat. No. 6,413,969; cited from earlier work
[4] = room temperature; among the forms of U.S. Pat. No. 6,413,969; cited from earlier work
[5] = compared with the hemihydrate; cited from earlier work
[6] = prolonged (e.g. 2 months) storage at ambient temperature and pressure

COc1c(N2CCNC(C)C2)c(F)cc2c(=O)c(C(=O)O)cn(C3CC3)c12 (racemic) [form L, (±) 1-cyclopropyl-6-fluoro-1,4-dihydro-8-methoxy-7-(3-methyl-1-piperazinyl)-4-oxo-3-quinolinecarboxylic acid]
crystalline form after prolonged storage [1, 6]: converts to form Ω

COc1c(N2CCNC(C)C2)c(F)cc2c(=O)c(C(=O)O)cn(C3CC3)c12 (racemic) [form M, (±) 1-cyclopropyl-6-fluoro-1,4-dihydro-8-methoxy-7-(3-methyl-1-piperazinyl)-4-oxo-3-quinolinecarboxylic acid]
crystalline form after prolonged storage [1, 6]: converts to form T2RP (hemihydrate)

COc1c(N2CCNC(C)C2)c(F)cc2c(=O)c(C(=O)O)cn(C3CC3)c12 (racemic) [form P, (±) 1-cyclopropyl-6-fluoro-1,4-dihydro-8-methoxy-7-(3-methyl-1-piperazinyl)-4-oxo-3-quinolinecarboxylic acid]
crystalline form after heating [2]: results in gatifloxacin form T1 | crystalline form after prolonged storage ([1]; prolonged (e.g. 1 month) storage at ambient temperature and pressure): converts to gatifloxacin sesquihydrate

COc1c(N2CCNC(C)C2)c(F)cc2c(=O)c(C(=O)O)cn(C3CC3)c12 (stereo not shown) [pentahydrate, gatifloxacin]
thermodynamic stability [3]: most thermodynamically stable form | aqueous solubility [4]: lowest

COc1c(N2CCNC(C)C2)c(F)cc2c(=O)c(C(=O)O)cn(C3CC3)c12 (stereo not shown) [sesquihydrate, gatifloxacin]
stability in manufacturing [5]: more stable
